Consider 18 compounds from US20080221193A1, “3-AMINO CHROMANE DERIVATIVES” (Wyeth, priority 2006, published 2008).

For assay [1], the target named is h5-HT Transporter (Homo sapiens, UniProt P31645). Briefly: h5-HT Transporter Function (Table 1). The assay is classed as biochemical.
In assay [2] the target is T1, human 5-HT1A receptors (Homo sapiens, UniProt P08908).
T1 construct: expressed in transfected cells; host or cells: CHO cells, stably transfected
T1 sequence (P08908 1-422): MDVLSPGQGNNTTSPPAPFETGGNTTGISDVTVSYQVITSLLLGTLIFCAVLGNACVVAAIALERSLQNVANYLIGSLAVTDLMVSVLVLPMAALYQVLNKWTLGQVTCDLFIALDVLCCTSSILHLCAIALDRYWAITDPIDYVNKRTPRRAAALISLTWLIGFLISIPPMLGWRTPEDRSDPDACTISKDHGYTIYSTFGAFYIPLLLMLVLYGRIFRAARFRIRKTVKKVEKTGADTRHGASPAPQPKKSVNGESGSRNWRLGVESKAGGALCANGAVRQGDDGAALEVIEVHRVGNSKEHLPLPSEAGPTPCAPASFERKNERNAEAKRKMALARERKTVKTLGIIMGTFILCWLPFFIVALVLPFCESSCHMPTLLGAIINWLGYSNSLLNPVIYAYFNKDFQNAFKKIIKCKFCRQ
As to the kind of experiment: 35S-GTPγS binding assay, membranes containing cloned human 5-HT1A receptors. The assay is classed as biochemical. Particulars: read-out: 5-HT1A Function GTPγS IC50. The text has this: (§1) The agonist or antagonist activity at 5-HT1A receptors was established by using two different assays. The ^35S-GTPγS binding assay similar to that used by Lazareno and Birdsall (Br. J. Pharmacol., 1993, 109: 1120) was used to determine the test compound's ability to affect the binding of ^35S-GTPγS to membranes containing cloned human 5-HT1A receptors. Agonists produce an increase in binding whereas antagonists produce no increase but rather reverse the effects of the standard agonist 8-OH-DPAT. The test compound's maximum stimulatory effect is represented as the Emax, while its potency is defined by the EC50. The test compound's maximum inhibitory effect is represented as the Imax, while its potency is defined by the IC50. The second assay measured cAMP accumulation upon binding of the ligand to the 5-HT1A receptor. Antagonists block the effect of the standard agonist 8-OH-DPAT resulting in an increase in cAMP accumulation while agonists have the reverse effect. The test compound's maximum stimulatory or inhibitory effect is represented as the Emax while its potency is defined by either IC50 for an antagonist or EC50 for an agonist. [^3H]-8-OH-DPAT was used to determine maximum agonist or antagonist response in both functional assays.

Assay [3] concerns the target T1, human 5-HT1A receptors. Briefly: 8-OH-DPAT binding in CHO cells stably transfected with human 5HT1a receptor. Particulars: displacement of [3H]8-OH-DPAT, CHO cells with human 5-HT1A; read-out: 5-HT1A Receptor Affinity Ki. As to the method:
High affinity for the serotonin 5-HT1A receptor was established by testing the claimed compound's ability to displace [^3H] 8-OH-DPAT (dipropylaminotetralin) from the 5-HT1A serotonin receptor following a modification of the procedure of Hall et al., (J. Neurochem., 1985, 44: 1685) which utilizes CHO cells stably transfected with human 5-HT1A receptors.
Stabily transfected CHO cells were grown in DMEM containing 10% heat inactivated FBS and non-essential amino acids. Cells were scraped off the plate, transferred to centrifuge tubes, and washed twice by centrifugation (2000 rpm for 10 min., 4° C.) in buffer (50 mM Tris pH 7.5). The resulting pellets were aliquoted and placed at −80° C. On day of assay, the cells were thawed on ice, and resuspended in buffer. The binding assay was performed in a 96 well microtiter plate in a total volume of […].
Non-specific binding was determined in the presence of […] 5HT, final ligand concentration is 1.5 nM. Following a 30 minute incubation at room temperature, the reaction was terminated by the addition of ice cold buffer and rapid filtration through a GF/B filter presoaked for 30 minutes in 0.5% PEI. Compounds were initially tested in a single point assay to determine percent inhibition at […]. Subsequently, Ki values were determined for compounds defined to be active.

The target in assay [4] is T2, h5HT1a receptor (Homo sapiens, UniProt P08908).
T2 construct: expressed in transfected cells; host or cells: CHO cells, stably transfected
T2 sequence (P08908 1-422): T1 sequence (P08908 1-422)
Briefly: cAMP RIA in CHO cells stably transfected with the h5HT1a receptor. Type of assay: cell-based. The following applies: for IC50: antagonist, reversal of agonist 8-OH-DPAT, read-out: 5-HT1A Function cAMP IC50; for EC50: agonist, forskolin-stimulated cAMP, read-out: 5-HT1A Function cAMP EC50.
Source text: as §1
Stabily transfected CHO cells were grown in DMEM containing 10% heat inactivated FBS and non-essential amino acids. The cells were plated at a density of 10(6) cells per well in a 24 well plate and incubated for 2 days in a CO2 incubator. On the second day, the media was replaced with 0.5 ml treatment buffer (DMEM+25 mM HEPES, 5 mM theophylline, 10 uM pargyline) and incubated 10 minutes at 37° C.
Wells were treated with forskolin (1 μM final conc) followed immediately by test compound (0.1 and 1 uM for initial screen) and incubated for an additional 10 min at 37° C. The reaction was terminated by removal of the media and addition of 0.5 ml ice cold assay buffer (supplied in RIA kit). Plates were stored at −20° C. prior to assessment of cAMP formation by RIA.
Compounds shown to have no agonist activities were further analyzed for ability to reverse agonist activity. In separate experiments, 6 concentrations of antagonist were preincubated for 20 minutes prior to the addition of agonist and forskolin. Cells were harvested as described. The cAMP kit was supplied by Amersham and the RIA was performed as per kit instructions.

h5-HT Transporter, sequence (P31645 whole entry): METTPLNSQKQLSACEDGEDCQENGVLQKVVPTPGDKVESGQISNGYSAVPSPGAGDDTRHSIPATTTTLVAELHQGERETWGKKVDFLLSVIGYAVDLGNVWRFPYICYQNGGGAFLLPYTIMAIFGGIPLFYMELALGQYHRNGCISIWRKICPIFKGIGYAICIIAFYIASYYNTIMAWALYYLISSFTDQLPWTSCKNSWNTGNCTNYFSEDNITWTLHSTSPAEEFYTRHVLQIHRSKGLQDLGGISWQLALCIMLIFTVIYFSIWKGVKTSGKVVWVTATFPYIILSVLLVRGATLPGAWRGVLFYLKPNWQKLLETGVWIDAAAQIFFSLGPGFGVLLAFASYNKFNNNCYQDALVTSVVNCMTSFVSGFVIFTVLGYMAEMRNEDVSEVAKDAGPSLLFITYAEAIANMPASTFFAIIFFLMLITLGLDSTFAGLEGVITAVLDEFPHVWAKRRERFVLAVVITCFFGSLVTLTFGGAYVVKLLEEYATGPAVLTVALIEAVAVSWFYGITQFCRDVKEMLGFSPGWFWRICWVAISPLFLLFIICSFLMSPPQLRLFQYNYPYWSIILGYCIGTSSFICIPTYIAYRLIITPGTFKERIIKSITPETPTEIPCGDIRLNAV

Turning to `COc1ccc(C(N)=O)c2c1OC[C@H](N(CCCc1c[nH]c3ccc(F)cc13)CC1CC1)C2` [Example 8, (3R)-3-{cyclopropylmethyl[3-(5-fluoro-1H-indol-3-yl)propyl]amino}-8-methoxychromane-5-carboxamide], the IC50 in assay [1] was 0.0453 µM; in assay [2] it was 0.442 µM; in assay [4] it was 0.439 µM. The Ki in assay [3] is 0.0255 µM.

For `Cc1ccc(C(N)=O)c2c1OC[C@H](N(CCCc1c[nH]c3ccc(F)cc13)C1CCC1)C2` [Example 20, (3R)-3-{cyclobutyl[3-(5-fluoro-1H-indol-3-yl)propyl]amino}-8-methylchromane-5-carboxamide], the IC50 in assay [1] was determined as 0.0522 µM; in assay [2] it was 0.311 µM. Further, the Ki in assay [3] is 0.00426 µM. In addition, in assay [4], the EC50 worked out at 0.0518 µM.

Regarding `CC(C)Oc1ccc(C(N)=O)c2c1OC[C@H](N(CCCc1c[nH]c3ccc(F)cc13)C1CCC1)C2` [Example 5, (3R)-3-{cyclobutyl[3-(5-fluoro-1H-indol-3-yl)propyl]amino}-8-isopropoxychromane-5-carboxamide], the figures for the IC50 in assay [1] and in assay [2] were 0.214 µM and 3.15 µM, respectively. The Ki in assay [3] is 0.0353 µM. In addition, the EC50 in assay [4] was 0.118 µM.

In the case of `NC(=O)c1ccc(O)c2c1C[C@@H](N(CCCc1c[nH]c3ccc(F)cc13)C1CCC1)CO2` [Example 6, (3R)-3-{cyclobutyl[3-(5-fluoro-1H-indol-3-yl)propyl]amino}-8-hydroxychromane-5-carboxamide], the values for the IC50 in assay [1] and in assay [2] were 0.347 µM and 2.55 µM, respectively. Further, the Ki in assay [3] is 0.136 µM. In assay [4], the EC50 is 0.312 µM.

As to `CCOc1ccc(C(N)=O)c2c1OC[C@H](N(CCCc1c[nH]c3ccc(F)cc13)C1CCC1)C2` [Example 3, (3R)-3-{cyclobutyl[3-(5-fluoro-1H-indol-3-yl)propyl]amino}-8-ethoxychromane-5-carboxamide], the IC50 in assay [1] worked out at 0.329 µM; in assay [2], 5.03 µM; in assay [4], 0.768 µM. In addition, the Ki in assay [3] was found to be 0.108 µM.

For the compound `COc1ccc(C(N)=O)c2c1OC[C@H](N(CCCc1c[nH]c3c(F)cc(F)cc13)C1CCC1)C2` [Example 18, (3R)-3-{cyclobutyl[3-(5,7-difluoro-1H-indol-3-yl)propyl]amino}-8-methoxy-chromane-5-carboxamide], the values for the IC50 in assay [1] and in assay [4] were 0.11 µM and 0.0942 µM, respectively. Besides, the Ki in assay [3] turned out to be 0.0613 µM.

Turning to `CN(C)c1ccc(C(N)=O)c2c1OC[C@H](N(CCCc1c[nH]c3ccc(F)cc13)C1CCC1)C2` [Example 24, (3R)-3-{cyclobutyl[3-(5-fluoro-1H-indol-3-yl)propyl]amino}-8-(dimethylamino) chromane-5-carboxamide], the IC50 in assay [1] amounted to 0.125 µM. For the same compound, the Ki in assay [3] turned out to be 0.0727 µM.

As to `COc1ccc(C(N)=O)c2c1OC[C@H](N(CCCc1c[nH]c3ccc(F)cc13)CCC(F)(F)F)C2` [Example 7, (3R)-3-{3,3,3-trifluoropropyl[3-(5-fluoro-1H-indol-3-yl)propyl]amino}-8-methoxychromane-5-carboxamide], in assay [1], the IC50 came to 2.68 µM. Further, the Ki in assay [3] was found to be 0.636 µM.

As to `CNC(=O)c1ccc(OC)c2c1C[C@@H](N(CCCc1c[nH]c3ccc(F)cc13)C1CCC1)CO2` [Example 16, (3R)-3-{cyclobutyl[3-(5-fluoro-1H-indol-3-yl)propyl]amino}-8-methoxychromane-5-methylcarboxamide], the values for the IC50 in assay [1] and in assay [2] were 0.055 µM and 0.738 µM, respectively. Moreover, in assay [3], the Ki turned out to be 0.57 µM. In assay [4], the half-maximal effective concentration (EC50) turned out to be 0.323 µM.

As to `COc1ccc(C(N)=O)c2c1OC[C@H](N(CCCc1c[nH]c3ccc(F)cc13)C1CCC1)C2` [Example 2, (3R)-3-{cyclobutyl[3-(5-fluoro-1H-indol-3-yl)propyl]amino}-8-methoxychromane-5-carboxamide], the IC50 in assay [1] stood at 0.0132 µM; in assay [2], 0.119 µM; in assay [4], 0.0921 µM. Further, the Ki in assay [3] is 0.0104 µM.

As for `COc1ccc(C(N)=O)c2c1OC[C@H](N(CCCC1CNc3ccc(F)cc31)C1CCC1)C2` (stereo partly drawn) [Example 19, (3R)-3-{cyclobutyl[3-(5-fluoro-1H-indolin-3-yl)propyl]amino}-8-methoxy-chromane-5-carboxamide], the IC50 amounted to 0.407 µM in assay [1] and 0.0999 µM in assay [4]. The Ki in assay [3] was found to be 0.0436 µM.

With `COc1ccc(C(N)=O)c2c1OC[C@H](N(CCCc1c[nH]c3ccc(F)cc13)CC(C)C)C2` [Example 13, (3R)-3-{2-methylpropyl[3-(5-fluoro-1H-indol-3-yl)propyl]amino}-8-methoxychromane-5-carboxamide], the values for the IC50 in assay [1] and in assay [2] were 0.339 µM and 2.95 µM, respectively. For the same compound, in assay [3], the Ki is 0.214 µM.

Consider “(3R)-3-{2-isopropyl[3-(5-fluoro-1H-indol-3-yl)propyl]amino}-8-methoxychromane-5-carboxamide [Example 9]”, for which the Ki in assay [3] was determined as 0.515 µM.

On to `CNC(=O)c1ccc(OC)c2c1C[C@@H](N(CCCc1c[nH]c3ccc(F)cc13)CCC(F)(F)F)CO2` [Example 17, (3R)-3-{3,3,3-trifluoropropyl[3-(5-fluoro-1H-indol-3-yl)propyl]amino}-8-methoxychromane-5-methylcarboxamide], for which half-maximal inhibition in assay [1] (IC50) required 5.54 µM. Further, the Ki in assay [3] came to 0.662 µM.

For the compound `COc1ccc(C(N)=O)c2c1OC[C@H](N(C)CCCc1c[nH]c3ccc(F)cc13)C2` [Example 15, (3R)-3-{methyl[3-(5-fluoro-1H-indol-3-yl)propyl]amino}-8-methoxychromane-5-carboxamide], the IC50 in assay [1] came to 0.16 µM. The Ki in assay [3] worked out at 1.7 µM.

In the case of `CCN(CCCc1c[nH]c2ccc(F)cc12)[C@H]1COc2c(OC)ccc(C(N)=O)c2C1` [Example 14, (3R)-3-{ethyl[3-(5-fluoro-1H-indol-3-yl)propyl]amino}-8-methoxychromane-5-carboxamide], the IC50 in assay [1] came to 0.00262 µM; in assay [2], 1.37 µM. Besides, in assay [3], the Ki worked out at 0.402 µM.

`COc1ccc(C(N)=O)c2c1OC[C@H](N(CCCc1c[nH]c3ccc(F)cc13)CCCC(F)(F)F)C2` [Example 12, (3R)-3-{4,4,4-trifluorobutyl[3-(5-fluoro-1H-indol-3-yl)propyl]amino}-8-methoxychromane-5-carboxamide] gave an IC50 in assay [1] of 2.58 µM.

On to `CCSc1ccc(C(N)=O)c2c1OC[C@H](N(CCCc1c[nH]c3ccc(F)cc13)C1CCC1)C2` [Example 23, (3R)-3-{cyclobutyl[3-(5-fluoro-1H-indol-3-yl)propyl]amino}-8-(ethylthio)chromane-5-carboxamide], for which the figures for the IC50 in assay [1] and in assay [4] were 0.831 µM and 0.137 µM, respectively. Moreover, in assay [3], the Ki worked out at 0.138 µM.
